Measurements reported in ChEMBL document CHEMBL5113380, “Functionalized quinoxalinones as privileged structures with broad-ranging pharmacological activities” (Eur J Med Chem, 2022).
≈ marks a conversion by molar mass, not a printed value.

Experiments:
[1] = biological target: Amine oxidase [flavin-containing] A (Homo sapiens, UniProt P21397); assay: Inhibition of MAO-A (unknown origin)
[2] = biological target: Amine oxidase [flavin-containing] B (Homo sapiens, UniProt P27338); assay: Inhibition of MAO-B (unknown origin)
Chain of Amine oxidase [flavin-containing] B (P27338 whole entry): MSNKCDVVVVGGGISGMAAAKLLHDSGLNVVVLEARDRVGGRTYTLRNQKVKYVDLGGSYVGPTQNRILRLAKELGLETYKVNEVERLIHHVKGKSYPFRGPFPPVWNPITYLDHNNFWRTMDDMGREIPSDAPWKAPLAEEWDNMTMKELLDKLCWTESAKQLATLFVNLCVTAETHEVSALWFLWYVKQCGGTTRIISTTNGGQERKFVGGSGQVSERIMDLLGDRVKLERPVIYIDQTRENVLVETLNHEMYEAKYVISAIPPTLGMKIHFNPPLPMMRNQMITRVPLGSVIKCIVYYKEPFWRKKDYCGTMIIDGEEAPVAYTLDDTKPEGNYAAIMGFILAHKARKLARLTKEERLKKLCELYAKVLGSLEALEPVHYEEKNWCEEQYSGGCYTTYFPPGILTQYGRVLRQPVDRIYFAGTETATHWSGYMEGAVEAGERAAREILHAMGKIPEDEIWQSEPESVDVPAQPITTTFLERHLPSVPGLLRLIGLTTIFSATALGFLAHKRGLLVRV

Trichomonas vaginalis = assay: Antiprotozoal activity against Trichomonas vaginalis; type: functional, organism-based
[3] = biological target: Human immunodeficiency virus type 1 reverse transcriptase (Human immunodeficiency virus 1, UniProt Q72547); assay: (§1) Inhibition of HIV1 reverse transcriptase
[4] = biological target: Human immunodeficiency virus type 1 reverse transcriptase (Human immunodeficiency virus 1) (UniProt Q72547); assay: as §1
[5] = biological target: 72 kDa type IV collagenase (Homo sapiens, UniProt P08253); assay: Inhibition of MMP-2 (unknown origin) using succinylated gelatin as substrate incubated for 30 mins and measured by gelatin zymography method
Chain of 72 kDa type IV collagenase (P08253 whole entry): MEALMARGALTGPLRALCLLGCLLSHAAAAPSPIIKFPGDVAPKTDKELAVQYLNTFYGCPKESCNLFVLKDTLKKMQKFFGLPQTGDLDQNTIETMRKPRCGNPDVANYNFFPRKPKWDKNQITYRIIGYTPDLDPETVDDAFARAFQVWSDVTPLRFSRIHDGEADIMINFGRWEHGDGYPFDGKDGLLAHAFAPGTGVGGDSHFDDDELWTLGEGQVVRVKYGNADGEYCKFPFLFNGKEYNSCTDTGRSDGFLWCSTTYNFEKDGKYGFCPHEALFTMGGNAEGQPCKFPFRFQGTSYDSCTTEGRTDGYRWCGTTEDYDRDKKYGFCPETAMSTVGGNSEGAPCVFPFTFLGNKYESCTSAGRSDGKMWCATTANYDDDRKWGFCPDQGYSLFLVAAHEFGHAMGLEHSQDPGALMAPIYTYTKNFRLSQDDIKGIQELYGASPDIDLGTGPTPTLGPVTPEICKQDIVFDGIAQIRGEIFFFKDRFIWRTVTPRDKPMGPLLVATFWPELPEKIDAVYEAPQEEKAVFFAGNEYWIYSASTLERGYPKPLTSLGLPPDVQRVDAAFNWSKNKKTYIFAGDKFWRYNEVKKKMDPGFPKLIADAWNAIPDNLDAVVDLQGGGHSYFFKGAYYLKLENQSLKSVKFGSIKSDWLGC

Plasmodium yoelii yoelii [6] = assay: Antiplasmodial activity against chloroquine-sensitive Plasmodium yoelii yoelii lethal strain infected in CD1 mouse assessed as cured animal rate at 20 mg/kg, po; type: functional
Toxoplasma gondii = assay: Anti-tachyzoite activity against Toxoplasma gondii at 100 uM; type: functional, type III
Plasmodium yoelii yoelii [7] = assay: Antiplasmodial activity against chloroquine-sensitive Plasmodium yoelii yoelii lethal strain infected in CD1 mouse measured for 4 days; type: functional; settings: time 4 day
HCT-116 = assay: Antiproliferative activity against human HCT-116 cells after 48 hrs by MTT assay; type: functional, cell-based; settings: HCT-116, 48 h
[8] = biological target: Bromodomain-containing protein 4 (Homo sapiens, UniProt O60885); assay: Inhibition of BRD4 (unknown origin) using histone-H4 as substrate incubated for 15 mins and measured after 1 hr by AlphaScreen assay
CT26 = assay: Antitumor activity against mouse CT26 cells xenografted in C57BL/6 mouse assessed as tumor suppression rate at 20 mg/kg, ip administered for 14 days; type: functional; settings: time 14 day
Candida albicans [9] = assay: Antifungal activity against Candida albicans assessed as diameter zone of inhibition; type: functional
Rattus norvegicus = assay: Ulcerogenic activity in male albino rat assessed as ulceration at 25 mg/kg, po; type: functional
RAW264.7 [10] = assay: Anti-inflammatory activity in mouse RAW264.7 cells assessed as inhibition of LPS-induced iNOS expression at 30 uM; type: functional; design: scale not given: the % may be the effect or the level left
Mus musculus = assay: Antiinflammatory activity against mouse assessed as reduction in carragenan-induced paw edema at 25 mg/kg,po treated 1 hr prior to carrageenan challenge; type: functional; design: scale not given: the % may be the effect or the level left
RAW264.7 [11] = assay: Anti-inflammatory activity in mouse RAW264.7 cells assessed as inhibition of LPS-induced NO production at 10 uM after 24 hrs by Griess reagent-based assay; type: functional; design: scale not given: the % may be the effect or the level left
RAW264.7 [12] = assay: Anti-inflammatory activity in mouse RAW264.7 cells assessed as inhibition of LPS-induced COX-2 expression at 15 uM; type: functional; design: scale not given: the % may be the effect or the level left
[13] = biological target: Vascular endothelial growth factor receptor 2 (Homo sapiens, UniProt P35968)
Chain of Vascular endothelial growth factor receptor 2 (P35968 whole entry): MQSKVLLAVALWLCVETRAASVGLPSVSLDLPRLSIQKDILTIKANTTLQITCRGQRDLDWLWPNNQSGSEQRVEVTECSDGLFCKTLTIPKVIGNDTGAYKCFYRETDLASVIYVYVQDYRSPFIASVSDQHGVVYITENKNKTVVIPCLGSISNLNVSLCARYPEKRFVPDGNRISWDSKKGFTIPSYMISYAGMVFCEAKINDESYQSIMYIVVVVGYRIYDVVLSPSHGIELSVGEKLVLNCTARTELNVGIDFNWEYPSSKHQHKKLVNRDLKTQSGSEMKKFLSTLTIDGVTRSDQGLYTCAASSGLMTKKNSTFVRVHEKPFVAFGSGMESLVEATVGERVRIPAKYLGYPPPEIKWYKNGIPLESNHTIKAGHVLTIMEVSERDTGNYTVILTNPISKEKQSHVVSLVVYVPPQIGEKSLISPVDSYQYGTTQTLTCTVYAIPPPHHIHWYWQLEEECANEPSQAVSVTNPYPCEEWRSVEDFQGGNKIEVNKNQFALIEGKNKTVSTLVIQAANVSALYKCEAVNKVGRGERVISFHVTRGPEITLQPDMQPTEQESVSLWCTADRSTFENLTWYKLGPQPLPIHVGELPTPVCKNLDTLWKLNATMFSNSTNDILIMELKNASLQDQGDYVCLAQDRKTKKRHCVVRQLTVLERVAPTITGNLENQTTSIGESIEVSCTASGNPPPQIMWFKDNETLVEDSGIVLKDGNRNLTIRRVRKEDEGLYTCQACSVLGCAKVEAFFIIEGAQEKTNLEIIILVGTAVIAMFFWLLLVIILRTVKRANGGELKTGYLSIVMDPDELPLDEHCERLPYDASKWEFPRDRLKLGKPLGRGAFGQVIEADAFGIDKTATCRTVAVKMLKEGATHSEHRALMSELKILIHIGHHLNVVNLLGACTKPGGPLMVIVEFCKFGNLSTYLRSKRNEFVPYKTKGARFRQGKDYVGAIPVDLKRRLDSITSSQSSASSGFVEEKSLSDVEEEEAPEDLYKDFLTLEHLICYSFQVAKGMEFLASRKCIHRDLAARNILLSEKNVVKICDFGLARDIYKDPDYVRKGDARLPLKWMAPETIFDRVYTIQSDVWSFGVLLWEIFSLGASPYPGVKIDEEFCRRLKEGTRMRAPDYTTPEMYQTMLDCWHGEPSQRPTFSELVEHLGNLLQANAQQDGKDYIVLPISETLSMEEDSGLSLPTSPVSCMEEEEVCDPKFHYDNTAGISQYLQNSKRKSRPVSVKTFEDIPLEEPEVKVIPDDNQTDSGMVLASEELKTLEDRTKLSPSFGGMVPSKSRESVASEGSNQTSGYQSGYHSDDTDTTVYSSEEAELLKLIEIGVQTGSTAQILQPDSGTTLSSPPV

HepG2 [14] = assay: Induction of apoptosis in human HepG2 cells assessed as fold increase in caspase-3 protein level; type: functional
MCF7 = assay: Antiproliferative activity against human MCF7 cells; type: functional, cell-based
HepG2 [15] = assay: Antiproliferative activity against human HepG2 cells; type: functional, cell-based
HepG2 [16] = assay: Induction of apoptosis in human HepG2 cells assessed as fold increase in caspase-9 protein level; type: functional
HepG2 [17] = assay: Induction of apoptosis in human HepG2 cells assessed as fold increase in BAX/BCL-2 protein level; type: functional
HepG2 [18] = assay: Cell cycle arrest in human HepG2 cells assessed as fold increase in accumulation at G2/M phase; type: functional
Escherichia coli = assay: Antibacterial activity against Escherichia coli; type: functional
Candida [19] = assay: Antifungal activity against Candida species isolate 1; type: functional
Candida albicans [20] = assay: Antifungal activity against Candida albicans; type: functional
Pichia kudriavzevii = assay: Antifungal activity against Candida krusei; type: functional
[21] = tested on: Mycobacterium tuberculosis; assay: Antimycobacterial activity against Mycobacterium tuberculosis at […]; type: functional; settings: dose 12.5 µg/ml
Candida [22] = assay: Antifungal activity against Candida species isolate 3; type: functional
Candida tropicalis = assay: Antifungal activity against Candida tropicalis; type: functional
Candida parapsilosis = assay: Antifungal activity against Candida parapsilosis; type: functional; settings: Lodderomyces parapsilosis
Candida [23] = assay: Antifungal activity against Candida species isolate 2; type: functional
Nakaseomyces glabratus = assay: Antifungal activity against Candida glabrata; type: functional
Aminopeptidase N = Aminopeptidase N (Homo sapiens, UniProt P15144)
Chain of Aminopeptidase N (P15144 whole entry): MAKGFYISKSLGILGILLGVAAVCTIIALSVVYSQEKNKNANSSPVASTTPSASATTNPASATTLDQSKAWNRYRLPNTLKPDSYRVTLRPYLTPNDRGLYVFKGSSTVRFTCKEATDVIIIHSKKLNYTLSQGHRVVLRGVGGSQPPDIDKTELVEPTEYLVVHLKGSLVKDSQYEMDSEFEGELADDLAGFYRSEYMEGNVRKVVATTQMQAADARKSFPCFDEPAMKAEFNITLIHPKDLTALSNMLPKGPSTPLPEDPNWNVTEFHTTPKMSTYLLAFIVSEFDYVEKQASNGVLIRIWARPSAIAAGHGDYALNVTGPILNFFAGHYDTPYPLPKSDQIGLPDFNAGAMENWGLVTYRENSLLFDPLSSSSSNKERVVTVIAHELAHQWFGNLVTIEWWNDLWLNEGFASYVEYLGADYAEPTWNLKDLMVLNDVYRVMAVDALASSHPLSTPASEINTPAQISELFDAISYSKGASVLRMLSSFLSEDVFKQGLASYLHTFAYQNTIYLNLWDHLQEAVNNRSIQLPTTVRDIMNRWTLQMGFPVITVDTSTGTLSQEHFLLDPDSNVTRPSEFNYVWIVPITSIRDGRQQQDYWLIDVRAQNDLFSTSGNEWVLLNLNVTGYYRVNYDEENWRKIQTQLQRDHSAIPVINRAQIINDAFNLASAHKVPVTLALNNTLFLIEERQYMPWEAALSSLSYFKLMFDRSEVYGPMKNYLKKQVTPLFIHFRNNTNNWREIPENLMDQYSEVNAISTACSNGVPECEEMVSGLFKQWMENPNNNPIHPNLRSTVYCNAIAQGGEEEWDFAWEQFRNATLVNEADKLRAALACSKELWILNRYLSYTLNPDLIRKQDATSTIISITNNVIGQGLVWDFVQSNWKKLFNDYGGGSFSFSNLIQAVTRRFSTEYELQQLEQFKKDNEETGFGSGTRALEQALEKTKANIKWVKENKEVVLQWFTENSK

[24] = tested on: Human immunodeficiency virus 1; assay: Antiviral activity against HIV-1 IIIB; type: functional, organism-based; settings: Human immunodeficiency virus 1, IIIB
[25] = tested on: Human immunodeficiency virus 1; assay: Antiviral activity against HIV1 measured by CPE assay; type: functional, organism-based
[26] = tested on: Human immunodeficiency virus 1; assay: Antiviral activity against HIV-1 74V; type: functional, organism-based; settings: Human immunodeficiency virus 1, 74V
[27] = tested on: Human immunodeficiency virus 1; assay: Antiviral activity against HIV-1 A17; type: functional, organism-based; settings: Human immunodeficiency virus 1, A17
[28] = biological target: Voltage-gated inwardly rectifying potassium channel KCNH2 (Homo sapiens, UniProt Q12809); assay: Inhibition of hERG; type: toxicity
Chain of Voltage-gated inwardly rectifying potassium channel KCNH2 (Q12809 whole entry): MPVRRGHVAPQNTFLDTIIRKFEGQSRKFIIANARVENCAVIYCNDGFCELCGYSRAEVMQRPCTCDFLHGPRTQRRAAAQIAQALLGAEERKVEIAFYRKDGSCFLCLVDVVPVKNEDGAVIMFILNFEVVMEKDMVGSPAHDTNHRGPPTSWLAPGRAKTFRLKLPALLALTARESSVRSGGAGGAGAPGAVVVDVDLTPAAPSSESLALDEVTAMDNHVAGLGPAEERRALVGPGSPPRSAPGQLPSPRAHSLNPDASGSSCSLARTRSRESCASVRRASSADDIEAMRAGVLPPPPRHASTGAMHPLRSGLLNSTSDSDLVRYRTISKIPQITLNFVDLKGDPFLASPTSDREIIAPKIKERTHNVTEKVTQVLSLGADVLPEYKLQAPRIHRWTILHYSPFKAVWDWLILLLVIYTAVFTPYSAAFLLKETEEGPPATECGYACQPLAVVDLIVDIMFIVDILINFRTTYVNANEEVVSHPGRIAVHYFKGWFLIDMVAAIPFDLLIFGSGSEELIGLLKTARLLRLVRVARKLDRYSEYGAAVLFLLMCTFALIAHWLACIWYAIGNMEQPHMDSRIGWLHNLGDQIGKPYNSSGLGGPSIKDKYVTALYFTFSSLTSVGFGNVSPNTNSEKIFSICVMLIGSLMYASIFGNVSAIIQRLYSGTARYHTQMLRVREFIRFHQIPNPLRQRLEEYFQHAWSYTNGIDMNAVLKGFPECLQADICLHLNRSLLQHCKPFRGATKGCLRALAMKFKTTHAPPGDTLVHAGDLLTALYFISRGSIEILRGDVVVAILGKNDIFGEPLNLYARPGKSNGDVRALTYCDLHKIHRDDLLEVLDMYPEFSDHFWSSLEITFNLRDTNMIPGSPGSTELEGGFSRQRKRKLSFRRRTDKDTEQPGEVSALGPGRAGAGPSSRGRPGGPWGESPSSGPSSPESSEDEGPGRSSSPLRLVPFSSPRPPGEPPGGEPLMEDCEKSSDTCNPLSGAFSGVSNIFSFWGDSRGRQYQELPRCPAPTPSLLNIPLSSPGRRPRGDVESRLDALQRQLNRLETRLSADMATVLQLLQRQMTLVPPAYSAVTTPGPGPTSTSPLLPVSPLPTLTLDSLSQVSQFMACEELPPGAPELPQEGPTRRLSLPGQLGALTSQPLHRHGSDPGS

Topoisomerase IV = Topoisomerase IV (Staphylococcus aureus, UniProt P0C1S7+P0C1U9); assay: Inhibition of Staphylococcus aureus topoisomerase 4; type: protein-complex assay
Staphylococcus aureus [29] = assay: Antibacterial activity against methicillin-resistant Staphylococcus aureus; type: functional
Staphylococcus aureus [30] = assay: Antibacterial activity against methicillin-sensitive Staphylococcus aureus; type: functional
[31] = Inhibition of DC-SIGN (unknown origin)
[32] = Inhibition of lipid peroxidation at 10 uM by measuring MDA concentration; type: functional; design: scale not given: the % may be the effect or the level left
[33] = Inhibition of lipid peroxidation at 100 uM by measuring MDA concentration; type: functional; design: Activity: scale not given: the % may be the effect or the level left
[34] = Antioxidant activity assessed as DPPH radical scavenging activity at 50 uM; type: functional
[35] = Inhibition of ALR2 (unknown origin); design: species or system Homo sapiens
[36] = Antioxidant activity assessed as DPPH radical scavenging activity at 100 uM; type: functional
[37] = Inhibition of ALR1 (unknown origin) relative to control; design: concentration or dose not given beside the values; settings: Homo sapiens; concentration not given here
[38] = Binding affinity to benzodiazepine receptor (unknown origin); design: species or system Homo sapiens
[39] = Antiproliferative activity against human U-87 MG cells; type: functional, cell-based, U-87MG ATCC

Question: Which IC50 [1] does the source give for C/C(=N\NC(=O)Cn1c(=O)c(Cc2ccccc2)nc2ccccc21)c1ccc(O)cc1 here?
Answer: 1.6 nM

Question: What about the IC50 [2] of the same compound?
Answer: 980000 nM

Question: With CCOC(=O)C(C)c1nc2ccc(C(F)(F)F)cc2[nH]c1=O (centres undefined) as the compound, how does the MIC (Trichomonas vaginalis) read?
Answer: 100 µg/mL (≈ 318 µM)

Question: Which IC50 [3] does the source give for CCOC(=O)N1c2ccccc2NC(=O)[C@]1(C#CC1CC1)C(F)(F)F here?
Answer: 45 nM

Question: What about the IC90 [4] of the same compound?
Answer: 4.8 nM

Question: For Cc1ccc(NC(=O)C(Cc2ccccc2)NC(=O)Cn2c(=O)c(C)nc3ccccc32)cc1 (centres undefined), which IC50 [5] is on record?
Answer: 10500 nM

Question: What does the source list for CN1C(=O)CN(CCCCCN2CCCCC2)c2ccc([N+](=O)[O-])cc21?
Answer: Activity (Plasmodium yoelii yoelii [6]): 20%; Activity (Toxoplasma gondii): 96%; LD50 (Plasmodium yoelii yoelii [7]; Plasmodium yoelii, 96 h): 56.5 mg/kg; LD10 (Plasmodium yoelii yoelii [7]): 20.58 mg/kg

Question: Which IC50 (HCT-116) does the source give for Cc1noc(C)c1-c1ccc2c(c1)C(c1ccccc1)N(Cc1cn(CCOCCOCCOCCn3cc(CC4C(=O)N(C)c5ccc(-c6c(C)noc6C)cc5N4c4ccccc4)nn3)nn1)C(=O)N2C (centres undefined) here?
Answer: 162 nM

Question: And the IC50 [8]?
Answer: 7.7 nM

Question: What about the Activity (CT26) of the same compound?
Answer: 56.1%

Question: With CC(C)=NNc1nc2ccccc2[nH]c1=O as the compound, how does the “diameter of the inhibition zone (DIZ)” value (Candida albicans [9]) read?
Answer: 31 mm

Question: With COc1cc(Cn2c(=O)c3nnc(C(N)=O)n3c3ccccc32)cc(OC)c1OC as the compound, how does the Activity (Rattus norvegicus) read?
Answer: 20%

Question: What about the Activity (RAW264.7 [10]) of the same compound?
Answer: 39.89%

Question: And the Activity (Mus musculus)?
Answer: 50.83%

Question: What about the Activity (RAW264.7 [11]) of the same compound?
Answer: 38.82%

Question: What about the Activity (RAW264.7 [12]) of the same compound?
Answer: 53.442%

Question: For O=C(Cn1c(=O)c2nncn2c2ccccc21)Nc1ccc(C(=O)Nc2ccc(Cl)cc2)cc1, which IC50 [13] is on record?
Answer: 3.4 nM

Question: What about the “fold change (FC)” value (HepG2 [14]) of the same compound?
Answer: 1.96

Question: And the IC50 (MCF7)?
Answer: 7200 nM

Question: And the IC50 (HepG2 [15])?
Answer: 4100 nM

Question: And the “fold change (FC)” value (HepG2 [16])?
Answer: 1.82

Question: What about the “fold change (FC)” value (HepG2 [17]) of the same compound?
Answer: 3.81

Question: And the “fold change (FC)” value (HepG2 [18])?
Answer: 2.14

Question: Which MIC (Escherichia coli) does the source give for O=c1[nH]c2cc([N+](=O)[O-])ccc2nc1CBr here?
Answer: 125 µg/mL (≈ 440 µM)

Question: What about the MIC (Candida [19]) of the same compound?
Answer: 15.6 µg/mL (≈ 54.9 µM)

Question: And the MIC (Candida albicans [20])?
Answer: 8 µg/mL (≈ 28.2 µM)

Question: What about the MIC (Pichia kudriavzevii) of the same compound?
Answer: 62.5 µg/mL (≈ 220 µM)

Question: What about the Activity [21] of the same compound?
Answer: 15%

Question: What about the MIC (Candida [22]) of the same compound?
Answer: 15.6 µg/mL (≈ 54.9 µM)

Question: And the MIC (Candida tropicalis)?
Answer: 31.2 µg/mL (≈ 110 µM)

Question: What about the MIC (Candida parapsilosis) of the same compound?
Answer: 15.6 µg/mL (≈ 54.9 µM)

Question: What about the MIC (Candida [23]) of the same compound?
Answer: 31.2 µg/mL (≈ 110 µM)

Question: And the MIC (Nakaseomyces glabratus)?
Answer: 15.6 µg/mL (≈ 54.9 µM)

Question: For COc1cccc(/C=N/NC(=O)Cn2c(=O)c(C)nc3ccccc32)c1O, which IC50 (Aminopeptidase N) is on record?
Answer: 80900 nM

Question: And the EC50 [24]?
Answer: 6050 nM

Question: And the EC50 [25]?
Answer: 2790 nM

Question: What about the EC50 [26] of the same compound?
Answer: 3480 nM

Question: And the EC50 [27]?
Answer: 2460 nM

Question: For COc1ccc2nccc(CC[C@H]3OC[C@H](NC(=O)c4ccc5c(c4)OCCO5)CO3)c2c1, which IC50 [28] is on record?
Answer: > 100000 nM

Question: What about the IC50 (Topoisomerase IV) of the same compound?
Answer: > 200000 nM

Question: What about the MIC (Staphylococcus aureus [29]) of the same compound?
Answer: 1 µg/mL (≈ 2.22 µM)

Question: And the MIC (Staphylococcus aureus [30])?
Answer: 1 µg/mL (≈ 2.22 µM)

Question: With NS(=O)(=O)c1ccc(CCCC2Nc3ccc(C(=O)N4CCN(c5ccncc5)CC4)cc3NC2=O)cc1 (centres undefined) as the compound, how does the IC50 [31] read?
Answer: 310 nM

Question: Which results are given for O=C(O)Cn1c(=O)c(Oc2cc(O)cc(O)c2)nc2ccc(Cl)cc21?
Answer: Activity [32]: 26.6%; Activity [33]: 55.3%; Activity [34]: 83.7%; IC50 [35]: 566 nM; Activity [36]: 91.3%; inhibition [37]: 38.2%

Question: For Oc1nc2ccc(Cl)cc2n2nc(-c3ccccc3F)nc12, which Ki [38] is on record?
Answer: 2.9 nM

Question: With COc1cc2c(Oc3ccc(NC(=O)c4nc5ccccc5n(C5CCCCC5)c4=O)cc3F)ccnc2cc1OCCCN1CCOCC1 as the compound, how does the IC50 [39] read?
Answer: 810 nM
